Results as given in patent publication US6479435B1, “Diaryl ethers and processes for their preparation and herbicidal and desiccant compositions containing them” (ISK Americas Incorporated, priority 1997, dated 2002).

Columns and labels:
Assay type in all cases: in vivo
[1] = test system: Johnsongrass (Sorghum halepense, SORHA); assay: Pre-emerge greenhouse herbicide test, phytotoxicity rating; settings: 14 days after application, rating scale 0-100
From the text: (§1) A standard greenhouse herbicide activity screening system was used to evaluate the herbicidal efficacy and crop safety of these test compounds. Six broadleaf weed species including redroot pigweed (Amaranthus retroflexus, AMARE), velvetleaf (Abutilon theophrasti, ABUTH), sicklepod (Cassia obtusifolia, CASOB), ivyleaf morningglory (Ipomoea hederacea, IPOHE), lambsquarters (Chenopodium album, CHEAL) and common ragweed (Ambrosia artemisiifolia L., AMBEL) were used as test species. Four grass weed species including green foxtail (Setaria viridis, SETVI), barnyardgrass (Echinochloa crusgalli, ECHCG), Johnsongrass (Sorghum halepense, SORHA), and large crabgrass (Digitaria sanguinalis, DIGSA) were also used. In addition, three crop species, field corn (Zea mays L., var. Dekalb 535, CORN), soybean (Glycine max L., var. Pella 86, SOY), and upland rice (Oryza sp., var.Tebonnet, RICE) were included.
(§2) All plants were grown in 10 cm square plastic pots which were filled with a sandy loam soil mix. For preemerge tests, seeds were planted one day prior to application of the test compounds. Immediately after application, test units of the pre-emerge applications were watered at the soil surface to incorporate the test materials. Subsequently, these test units were bottom-watered.
(§3) All test compounds were dissolved in acetone and applied to the test units in a volume of 187 l/ha. Test materials were applied at rates ranging from 125 g ai/ha to 1000 g ai/ha using a track sprayer equipped with a TJ8001E even flow flat fan spray nozzle. Plants were arranged on a shelf so that the top of the canopy (post-emerge) or top of the soil surface (pre-emerge) was 40-45 cm below the nozzle. Pressurized air was used to force the test solution through the nozzle as it was mechanically advanced (via electrically driven chain drive) over the top of all test plants/pots. This application simulates a typical commercial field herbicide application.
(§4) At 14 days after application of the test materials, phytotoxicity ratings were recorded. A rating scale of 0-100 was used as previously described in Research Methods in Weed Science, 2nd edition, B. Truelove, Ed., Southern Weed Science Society, Auburn University, Auburn, Ala., 1977. Briefly, “0” corresponds to no damage and “100” corresponds to complete death of all plants in the test unit. This scale was used both to determine efficacy against weed species and damage to crop species. Herbicide activity data for various compounds of this invention, which are shown by compound number in Tables 1-9, are shown in Tables 13 and 14.

[2] = test system: barnyardgrass (Echinochloa crusgalli, ECHCG); assay: as above; settings: 14 days after application, rating scale 0-100
From the text: as §1, §2, §3, §4

[3] = test system: green foxtail (Setaria viridis, SETVI); assay: as above; settings: 14 days after application, rating scale 0-100
From the text: as §1, §2, §3, §4

[4] = test system: ivyleaf morningglory (Ipomoea hederacea, IPOHE); assay: as above; settings: 14 days after application, rating scale 0-100
From the text: as §1, §2, §3, §4

[5] = test system: lambsquarters (Chenopodium album, CHEAL); assay: as above; settings: 14 days after application, rating scale 0-100
From the text: as §1, §2, §3, §4

[6] = test system: large crabgrass (Digitaria sanguinalis, DIGSA); assay: as above; settings: 14 days after application, rating scale 0-100
From the text: as §1, §2, §3, §4

[7] = test system: redroot pigweed (Amaranthus retroflexus, AMARE); assay: as above; settings: 14 days after application, rating scale 0-100
From the text: as §1, §2, §3, §4

[8] = test system: sicklepod (Cassia obtusifolia, CASOB); assay: as above; settings: 14 days after application, rating scale 0-100
From the text: as §1, §2, §3, §4

[9] = test system: velvetleaf (Abutilon theophrasti, ABUTH); assay: as above; settings: 14 days after application, rating scale 0-100
From the text: as §1, §2, §3, §4

[10] = test system: field corn (Zea mays L., var. Dekalb 535, CORN); assay: Pre-emerge greenhouse test, crop damage rating; settings: 14 days after application, rating scale 0-100
Outline: (§5)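 Seeds sown in sandy loam mix one day before track-sprayer application of compounds in acetone at 125–1000 g ai/ha (187 l/ha), then surface-watered to incorporate and bottom-watered. Visual rating 14 days after application on a 0–100 scale (0 = no damage, 100 = all plants dead).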

[11] = test system: upland rice (Oryza sp., var.Tebonnet, RICE); assay: Pre-emerge greenhouse test, crop damage rating; settings: 14 days after application, rating scale 0-100
Outline: as §5

[12] = test system: soybean (Glycine max L., var. Pella 86, SOY); assay: Pre-emerge greenhouse test, crop damage rating; design: key to SOY crop damage rating: 0 = no damage, 100 = complete death of all plants; settings: 14 days after application, rating scale 0-100
Outline: as §5

[13] = test system: Johnsongrass (Sorghum halepense, SORHA); assay: Post-emerge greenhouse herbicide test, phytotoxicity rating; settings: 14 days after application; for phytotoxicity rating SORHA: scale 0-100
Outline: (§6)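 Compounds in acetone with 0.25% v/v non-ionic surfactant were track-sprayed at 187 l/ha over plants at the 2-3 leaf stage, at 63 to 1000 g ai/ha. Pots were bottom-watered. Injury was scored visually 14 days later on a 0-100 scale, where 0 is no damage and 100 is complete plant death.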

[14] = test system: barnyardgrass (Echinochloa crusgalli, ECHCG); assay: as above; settings: 14 days after application; for phytotoxicity rating ECHCG: scale 0-100
Outline: as §6

[15] = test system: green foxtail (Setaria viridis, SETVI); assay: as above; settings: 14 days after application; for phytotoxicity rating SETVI: scale 0-100
Outline: as §6

[16] = test system: ivyleaf morningglory (Ipomoea hederacea, IPOHE); assay: as above; settings: 14 days after application; for phytotoxicity rating IPOHE: scale 0-100
Outline: as §6

[17] = test system: lambsquarters (Chenopodium album, CHEAL); assay: as above; settings: 14 days after application; for phytotoxicity rating CHEAL: scale 0-100
Outline: as §6

[18] = test system: large crabgrass (Digitaria sanguinalis, DIGSA); assay: as above; settings: 14 days after application; for phytotoxicity rating DIGSA: scale 0-100
Outline: as §6

[19] = test system: redroot pigweed (Amaranthus retroflexus, AMARE); assay: as above; settings: 14 days after application; for phytotoxicity rating AMARE: scale 0-100
Outline: as §6

[20] = test system: sicklepod (Cassia obtusifolia, CASOB); assay: as above; settings: 14 days after application; for phytotoxicity rating CASOB: scale 0-100
Outline: as §6

[21] = test system: velvetleaf (Abutilon theophrasti, ABUTH); assay: as above; settings: 14 days after application; for phytotoxicity rating ABUTH: scale 0-100
Outline: as §6

[22] = test system: field corn (Zea mays L., var. Dekalb 535, CORN); assay: Post-emerge greenhouse test, crop damage rating; settings: 14 days after application; for crop damage rating CORN: scale 0-100
Outline: as §6

[23] = test system: upland rice (Oryza sp., var.Tebonnet, RICE); assay: Post-emerge greenhouse test, crop damage rating; settings: 14 days after application; for crop damage rating RICE: scale 0-100
Outline: as §6

[24] = test system: soybean (Glycine max L., var. Pella 86, SOY); assay: Post-emerge greenhouse test, crop damage rating; design: key to crop damage rating SOY: 0-100 scale: 0 = no damage, 100 = complete death of all plants; settings: 14 days after application; for crop damage rating SOY: scale 0-100
Outline: as §6

## CS(=O)(=O)Nc1ccc(Oc2cc(-n3c(=O)cc4n(c3=O)CCC4)c(F)cc2Cl)cc1 [Compound 5-5]
[1]; 500 g ai/ha
  phytotoxicity rating SORHA: 0
[2]; 500 g ai/ha
  phytotoxicity rating ECHCG: 0
[3]; 500 g ai/ha
  phytotoxicity rating SETVI: 0
[4]; 500 g ai/ha
  phytotoxicity rating IPOHE: 0
[5]; 500 g ai/ha
  phytotoxicity rating CHEAL: 100
[6]; 500 g ai/ha
  phytotoxicity rating DIGSA: 0
[7]; 500 g ai/ha
  phytotoxicity rating AMARE: 95
[8]; 500 g ai/ha
  phytotoxicity rating CASOB: 0
[9]; 500 g ai/ha
  phytotoxicity rating ABUTH: 50
[10]; 500 g ai/ha
  crop damage rating CORN: 0
[11]; 500 g ai/ha
  crop damage rating RICE: 0
[12]; 500 g ai/ha
  crop damage rating SOY: 10
[13]; 500 g al/ha
  SORHA phytotoxicity rating (0-100): 0
[14]; 500 g al/ha
  ECHCG phytotoxicity rating (0-100): 0
[15]; 500 g al/ha
  SETVI phytotoxicity rating (0-100): 0
[16]; 500 g al/ha
  IPOHE phytotoxicity rating (0-100): 0
[17]; 500 g al/ha
  CHEAL phytotoxicity rating (0-100): 0
[18]; 500 g al/ha
  DIGSA phytotoxicity rating (0-100): 0
[19]; 500 g al/ha
  AMARE phytotoxicity rating (0-100): 0
[20]; 500 g al/ha
  CASOB phytotoxicity rating (0-100): 0
[21]; 500 g al/ha
  ABUTH phytotoxicity rating (0-100): 0
[22]; 500 g al/ha
  CORN crop damage rating (0-100): 0
[23]; 500 g al/ha
  RICE crop damage rating (0-100): 0
[24]; 500 g al/ha
  SOY crop damage rating (0-100): 0

## Nn1c(C(F)(F)F)cc(=O)n(-c2cc(Oc3cccc(F)n3)c(Cl)cc2F)c1=O [Compound 9-4, 1-Amino-3-[4-chloro-2-fluora-5-(6-fluoro-2-pyridyloxy)phenyl]-6-trifluoromethyl-1,2,3,4-tetrahydropyrimidine-2,4-dione]
[1]; Rate 125 g al/ha
  SORHA phytotoxicity rating: 99
[1]; Rate 500 g al/ha
  SORHA phytotoxicity rating: 100
[2]; Rate 125 g al/ha
  ECHCG phytotoxicity rating: 100
[2]; Rate 500 g al/ha
  ECHCG phytotoxicity rating: 100
[3]; Rate 125 g al/ha
  SETVI phytotoxicity rating: 100
[3]; Rate 500 g al/ha
  SETVI phytotoxicity rating: 100
[4]; Rate 125 g al/ha
  IPOHE phytotoxicity rating: 100
[4]; Rate 500 g al/ha
  IPOHE phytotoxicity rating: 100
[5]; Rate 125 g al/ha
  CHEAL phytotoxicity rating: 100
[5]; Rate 500 g al/ha
  CHEAL phytotoxicity rating: 100
[6]; Rate 125 g al/ha
  DIGSA phytotoxicity rating: 100
[6]; Rate 500 g al/ha
  DIGSA phytotoxicity rating: 100
[7]; Rate 125 g al/ha
  AMARE phytotoxicity rating: 100
[7]; Rate 500 g al/ha
  AMARE phytotoxicity rating: 100
[8]; Rate 125 g al/ha
  CASOB phytotoxicity rating: 60
[8]; Rate 500 g al/ha
  CASOB phytotoxicity rating: 100
[9]; Rate 125 g al/ha
  ABUTH phytotoxicity rating: 100
[9]; Rate 500 g al/ha
  ABUTH phytotoxicity rating: 100
[10]; Rate 125 g al/ha
  CORN crop damage rating: 60
[10]; Rate 500 g al/ha
  CORN crop damage rating: 95
[11]; Rate 125 g al/ha
  RICE crop damage rating: 40
[11]; Rate 500 g al/ha
  RICE crop damage rating: 99
[12]; Rate 125 g al/ha
  SOY crop damage rating: 80
[12]; Rate 500 g al/ha
  SOY crop damage rating: 95
[13]; rate 63 g ai/ha
  phytotoxicity rating SORHA: 70
[13]; rate 500 g ai/ha
  phytotoxicity rating SORHA: 98
[14]; rate 63 g ai/ha
  phytotoxicity rating ECHCG: 70
[14]; rate 500 g ai/ha
  phytotoxicity rating ECHCG: 100
[15]; rate 63 g ai/ha
  phytotoxicity rating SETVI: 30
[15]; rate 500 g ai/ha
  phytotoxicity rating SETVI: 95
[16]; rate 63 g ai/ha
  phytotoxicity rating IPOHE: 100
[16]; rate 500 g ai/ha
  phytotoxicity rating IPOHE: 100
[17]; rate 63 g ai/ha
  phytotoxicity rating CHEAL: 80
[17]; rate 500 g ai/ha
  phytotoxicity rating CHEAL: 100
[18]; rate 63 g ai/ha
  phytotoxicity rating DIGSA: 10
[18]; rate 500 g ai/ha
  phytotoxicity rating DIGSA: 95
[19]; rate 63 g ai/ha
  phytotoxicity rating AMARE: 95
[19]; rate 500 g ai/ha
  phytotoxicity rating AMARE: 100
[20]; rate 63 g ai/ha
  phytotoxicity rating CASOB: 90
[20]; rate 500 g ai/ha
  phytotoxicity rating CASOB: 100
[21]; rate 63 g ai/ha
  phytotoxicity rating ABUTH: 100
[21]; rate 500 g ai/ha
  phytotoxicity rating ABUTH: 100
[22]; rate 63 g ai/ha
  crop damage rating CORN: 40
[22]; rate 500 g ai/ha
  crop damage rating CORN: 80
[23]; rate 63 g ai/ha
  crop damage rating RICE: 50
[23]; rate 500 g ai/ha
  crop damage rating RICE: 70
[24]; rate 63 g ai/ha
  crop damage rating SOY: 95
[24]; rate 500 g ai/ha
  crop damage rating SOY: 100
